Experimental data: patent US20110034496A1, “POST-HARVEST TREATMENT” (Bayer CropScience AG, priority 2007, published 2011)

How the values were obtained:
Penicillium expansum = test: Apples dipped in fungicidal solution, then inoculated with Penicillium expansum spores at cuticle injuries; assay type: in vivo; conditions: for % Efficacy [Abbott] at 6 d: 6 d after inoculation; for % Efficacy [Abbott] at 10 d: 10 d after inoculation; for % Efficacy [Abbott] at 15 d: 15 d after inoculation
Experimental: (§1) In Example 1 and Example 2 all compounds except fluopyram were applied as commercially available. 1 weight proportion of fluopyram, however, was mixed with solvents (24.5 w/w acetone, 24.5 w/w dimethylacetamid) and emulsifier (1 w/w), respectively. Afterwards, the product was diluted in water. The concentration used is indicated below. Apples were dipped in a fungicidal solution and kept in plastic boxes for drying. Afterwards 10 μl of a spore solution of Penicillium expansum has been applied to injuries of the cuticle of the fruits. The trial has been assessed at different time intervals after inoculation. The efficacy of the products has been calculated based on the fungal growth of the treated apples with reference to the inoculated untreated control. The efficacy is shown as % Abbott.

Botrytis cinerea = test: Apples dipped in fungicidal solution, then inoculated with Botrytis cinerea spores at cuticle injuries; assay type: in vivo; conditions: dip 100 g a.i./1000 ltr
Experimental: as §1, with “Botrytis cinerea” for “Penicillium expansum”, “6d and 10d” for “different time intervals”

[1] = dip 50 g a.i./1000 ltr., Table 1b
[2] = dip 100 g a.i./1000 ltr., Table 1a
[3] = dip 100 g a.i./1000 ltr., Table 1b
[4] = dip 750 g a.i./1000 ltr., Table 1b

SMILES: CON=C(C(=O)OC)c1ccccc1CON=C(C)c1cccc(C(F)(F)F)c1 [Trifloxystrobin, trifloxystrobin]
- % Efficacy [Abbott] at 6 d (Penicillium expansum; [1]): 50%
- % Efficacy [Abbott] at 10 d (Penicillium expansum; [1]): 63%
- % Efficacy [Abbott] at 15 d (Penicillium expansum; [1]): 52%

SMILES: CC(C)(C)C(O)(CCc1ccc(Cl)cc1)Cn1cncn1 (centres unmarked) [Tebuconazole, tebuconazole]
- % Efficacy [Abbott] at 6 d (Penicillium expansum; [2]): 100%
- % Efficacy [Abbott] at 10 d (Penicillium expansum; [2]): 100%
- % Efficacy [Abbott] at 14 d (Penicillium expansum; dip 100 g a.i./1000 ltr., 14 d after inoculation, Table 1a): 100%

SMILES: O=C(NCCc1ncc(C(F)(F)F)cc1Cl)c1ccccc1C(F)(F)F [Fluopyram, N-{2-[3-chloro-5-(trifluoromethyl)pyridin-2-yl]ethyl}-2-(trifluoromethyl)-benzamide]
- % Efficacy [Abbott] at 6 d (Botrytis cinerea; 6 d after inoculation): 98%
- % Efficacy [Abbott] at 10 d (Botrytis cinerea; 10 d after inoculation): 96%
- % Efficacy [Abbott] at 6 d (Penicillium expansum; [3]): 93%
- % Efficacy [Abbott] at 10 d (Penicillium expansum; [3]): 90%
- % Efficacy [Abbott] at 15 d (Penicillium expansum; [3]): 70%

SMILES: Cc1ccc(N(SC(F)(Cl)Cl)S(=O)(=O)N(C)C)cc1 [Tolylfluanid, tolylfluanid]
- % Efficacy [Abbott] at 6 d (Penicillium expansum; [4]): 64%
- % Efficacy [Abbott] at 10 d (Penicillium expansum; [4]): 60%
- % Efficacy [Abbott] at 15 d (Penicillium expansum; [4]): 60%
